# Laboratory results published in patent US20250215030A1, “STAT MODULATORS AND USES THEREOF” (Recludix Pharma, Inc., priority 2022, published 2025).
# What was measured:
# [1] = target: T1, pSTAT3 (pY705-STAT3) (Homo sapiens, UniProt P40763); assay: MSD-pSTAT-PBMC Assay (pSTAT3, IL-6 stimulated); format: cell-based; details: PBMC, compound 3 hrs, then 10 ng/mL IL-6 for 10 min; MSD pY705-STAT3; read-out: pSTAT3
# T1 construct: host or cells: cryopreserved PBMC
# Method in brief: (§1)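 Human PBMCs (50,000 cells/well for STAT3, 25,000 for STAT6) treated with compound 3 h, then stimulated 10 min with 10 ng/mL IL-6 or 1 ng/mL IL-4. Lysate pSTAT3 (pY705) or pSTAT6 (pY641) measured by MSD sandwich electrochemiluminescence. Signal minus unstimulated, normalized to DMSO; IC50 by variable-slope nonlinear regression.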
# [2] = target: T2, pSTAT6 (pY641-STAT6) (Homo sapiens, UniProt P42226); assay: MSD-pSTAT-PBMC Assay (pSTAT6, IL-4 stimulated); format: cell-based; details: compound 3 hrs, then 1 ng/mL IL-4 for 10 min
# T2 construct: host or cells: cryopreserved PBMC
# T2 sequence (P42226 1-847): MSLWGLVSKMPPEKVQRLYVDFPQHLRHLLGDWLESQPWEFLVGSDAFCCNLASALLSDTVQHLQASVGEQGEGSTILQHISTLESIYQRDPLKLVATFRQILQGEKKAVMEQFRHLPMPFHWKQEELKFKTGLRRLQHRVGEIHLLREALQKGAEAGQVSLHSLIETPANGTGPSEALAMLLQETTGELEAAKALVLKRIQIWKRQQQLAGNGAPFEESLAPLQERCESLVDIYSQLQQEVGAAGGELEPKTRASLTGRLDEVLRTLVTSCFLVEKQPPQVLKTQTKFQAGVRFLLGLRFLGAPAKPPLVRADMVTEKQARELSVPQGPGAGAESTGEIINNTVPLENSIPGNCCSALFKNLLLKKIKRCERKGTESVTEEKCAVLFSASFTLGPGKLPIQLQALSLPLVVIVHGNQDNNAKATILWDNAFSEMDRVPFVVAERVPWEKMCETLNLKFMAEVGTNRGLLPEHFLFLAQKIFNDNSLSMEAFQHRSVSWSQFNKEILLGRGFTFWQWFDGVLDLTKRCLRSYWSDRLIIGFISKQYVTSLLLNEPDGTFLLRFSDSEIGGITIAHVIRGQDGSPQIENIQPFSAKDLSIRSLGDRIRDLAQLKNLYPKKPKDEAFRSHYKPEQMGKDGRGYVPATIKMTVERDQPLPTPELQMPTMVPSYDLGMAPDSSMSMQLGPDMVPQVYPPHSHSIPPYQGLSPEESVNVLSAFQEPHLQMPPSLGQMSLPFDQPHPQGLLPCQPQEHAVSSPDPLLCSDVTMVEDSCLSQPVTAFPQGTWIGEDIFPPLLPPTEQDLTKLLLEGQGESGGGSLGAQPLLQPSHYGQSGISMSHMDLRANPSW
# Method in brief: as §1
# T1 sequence (P40763 whole entry): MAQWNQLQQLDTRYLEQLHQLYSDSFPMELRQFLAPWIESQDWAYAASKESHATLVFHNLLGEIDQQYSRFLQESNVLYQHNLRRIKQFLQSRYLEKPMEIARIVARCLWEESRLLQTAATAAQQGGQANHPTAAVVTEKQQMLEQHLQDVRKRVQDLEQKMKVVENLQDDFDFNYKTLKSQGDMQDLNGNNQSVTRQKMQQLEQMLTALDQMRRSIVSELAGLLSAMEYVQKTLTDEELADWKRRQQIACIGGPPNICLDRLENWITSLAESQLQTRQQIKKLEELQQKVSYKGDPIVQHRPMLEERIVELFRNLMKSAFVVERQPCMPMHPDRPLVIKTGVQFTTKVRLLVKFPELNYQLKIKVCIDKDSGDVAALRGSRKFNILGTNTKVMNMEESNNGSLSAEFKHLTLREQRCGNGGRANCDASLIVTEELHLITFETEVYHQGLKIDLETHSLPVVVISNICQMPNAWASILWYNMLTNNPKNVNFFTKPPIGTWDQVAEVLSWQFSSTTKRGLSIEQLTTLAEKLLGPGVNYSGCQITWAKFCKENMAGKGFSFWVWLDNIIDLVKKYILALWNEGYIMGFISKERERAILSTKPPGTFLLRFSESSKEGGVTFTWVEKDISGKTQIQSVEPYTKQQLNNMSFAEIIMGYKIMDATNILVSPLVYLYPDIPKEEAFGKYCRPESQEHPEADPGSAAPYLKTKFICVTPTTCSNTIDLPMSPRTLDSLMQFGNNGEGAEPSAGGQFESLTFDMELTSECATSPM
SMILES,IC50 [1] [nM],IC50 [2] [nM]
"CC(C)(C)C(=O)OCOP(=O)(Cc1ccc2sc(C(=O)N[C@H]3C[C@H]4C[C@H]4C[C@H]4CC[C@@H](C(=O)N5CC(c6ccccn6)C5)N4C3=O)cc2c1)OCOC(=O)C(C)(C)C [Compound 155, ((((2-(((3S,6S,7aR, 8aS,9aR)-5-oxo-3-(3-(pyridin-2-yl)azetidine-1-carbonyl)decahydro-1H-cyclopropa[d]pyrrolo[1,2-a]azocin-6-yl)carbamoyl)benzo[b]thiophen-5-yl)methyl)phosphoryl)bis(oxy)) bis(methylene) bis(2,2-dimethyl-pronanoate)]",< 100,1000 to 3000
"CC(C)CC(=O)SCCOP(=O)(Oc1ccccc1)C(F)(F)c1ccc2sc(C(=O)N[C@H]3C[C@@H]4C[C@@H]4C[C@H]4CC[C@@H](C(=O)N5CC(C(=O)N6CCOCC6)C5)N4C3=O)cc2c1 (stereo partly drawn) [Compound 185, S-(2-(((difluoro(2-(((3S,6S,7aS, 8aR,9aR)-3-(3-(morpholine-4-carbonyl)azetidine-1-carbonyl)-5-oxodecahydro-1H-cyclopropa[d]pyrrolo[1,2-a]azocin-6-yl)carbamoyl)benzo[b]thiophen-5-yl)methyl) (phenoxy)phosphoryl)oxy)ethyl) 3-methylbutane thioate]",100 to 1000,> 3000
"CC(C)(C)C(=O)OCOP(=O)(OCOC(=O)C(C)(C)C)C(F)(F)c1ccc2sc(C(=O)N[C@H]3C[C@H]4C[C@H]4C[C@H]4CC[C@@H](C(=O)N5CC(c6c[nH]cn6)C5)N4C3=O)cc2c1 [Compound 203, ((((2-(((3S,6S,7aR, 8aS,9aR)-3-(3-(1H-imidazol-4-yl)azetidine-1-carbonyl)-5-oxodecahydro-1H-cyclopropa [d]pyrrolo[1,2-a]azocin-6-yl)carbamoyl)benzo[b]thiophen-5-yl)difluoromethyl)phosphoryl)bis(oxy)) bis(methylene) bis(2,2-dimethyl-propanoate)]",< 100,100 to 1000
"CC(C)(C)C(=O)SCCOP(=O)(Cc1ccc2sc(C(=O)N[C@H]3C[C@@H]4C[C@@H]4C[C@H]4CC[C@@H](C(=O)N5CC(C(=O)N6CCOCC6)C5)N4C3=O)cc2c1)OCCSC(=O)C(C)(C)C [Compound 144, S,S′-(((((2-(((3S,6S,7aS, 8aR,9aR)-3-(3-(morpholine-4-carbonyl)azetidine-1-carbonyl)-5-oxodecahydro-1H-cyclopropa[d]pyrrolo[1,2-a]azocin-6-yl)carbamoyl)benzo[b]thiophen-5-yl)methyl)phosphoryl)bis(oxy))bis(ethane-2,1-diyl)) bis(2,2-dimethyl-propanethioate)]",100 to 1000,> 3000
"COCC(C)(C)OC(=O)OCOP(=O)(OCOC(=O)OC(C)(C)COC)C(F)(F)c1ccc2sc(C(=O)N[C@H]3C[C@H]4C[C@H]4C[C@H]4CC[C@@H](C(=O)N5CC(c6cccnc6)C5)N4C3=O)cc2c1 [Compound 168, (((difluoro(2-(((3S,6S,7aR, 8aS,9aR)-5-oxo-3-(3-(pyridin-3-yl)azetidine-1-carbonyl)decahydro-1H-cyclopropa[d]pyrrolo[1,2-a]azocin-6-yl)carbamoyl)benzo[b]thiophen-5-yl)methyl)phosphoryl)bis(oxy)) bis(methylene) bis(1-methoxy-2-methylpropan-2-yl) bis(carbonate)]",< 100,> 3000
"CC(C)(C)C(=O)OCOP(=O)(Cc1ccc2sc(C(=O)N[C@H]3C[C@@H]4C[C@@H]4C[C@H]4CC[C@@H](C(=O)N5CC(C(=O)N6CCOCC6)C5)N4C3=O)cc2c1)OCOC(=O)C(C)(C)C [Compound 150, ((((2-(((3S,6S, 7aS,8aR,9aR)-3-(3-morpholine-4-carbonyl)azetidine-1-carbonyl)-5-oxodecahydro-1H-cyclopropa [d]pyrrolo[1,2-a]azocin-6-yl)carbamoyl)benzo [b]thiophen-5-yl)methyl)phosphoryl) bis(oxy)) bis(methylene) bis(2,2-dimethyl-propanoate)]",< 100,> 3000
"CC(C)(C)OC(=O)OCOP(=O)(OCOC(=O)OC(C)(C)C)C(F)(F)c1ccc2sc(C(=O)N[C@H]3C[C@@H]4C[C@@H]4C[C@H]4CC[C@@H](C(=O)N5CC(C(=O)N6CCOCC6)C5)N4C3=O)cc2c1 [Compound 170, di-tert-butyl ((((difluoro(2-(((3S,6S,7aS, 8aR,9aR)-3-(3-(morpholine-4-carbonyl)azetidine-1-carbonyl)-5-oxodecahydro-1H-cyclopropa[d]pyrrolo[1,2-a]azocin-6-yl)carbamoyl)benzo[b]thiophen-5-yl)methyl)phosphoryl)bis(oxy))bis(methylene)) bis(carbonate)]",1000 to 3000,> 3000
"CC(C)CC(=O)SCCOP(=O)(OCCSC(=O)CC(C)C)C(F)(F)c1ccc2sc(C(=O)N[C@H]3C[C@H]4C[C@H]4C[C@H]4CC[C@@H](C(=O)N5CC(c6cncnc6)C5)N4C3=O)cc2c1 [Compound 222, S,S′-((((difluoro(2-(((3S,6S,7aR, 8aS,9aR)-5-oxo-3-(3-(pyrimidin-5-yl)azetidine-1-carbonyl)decahydro-1H-cyclopropa[d]pyrrolo[1,2-a]azocin-6-yl)carbamoyl)benzo[b]thiophen-5-yl)methyl)phosphoryl)bis(oxy))bis(ethane-2,1-diyl)) bis(3-methylbutane thioate)]",< 100,> 3000

# Now from value to molecule:
IC50 [1] [nM],IC50 [2] [nM],SMILES
< 100,100 to 1000,"CC(C)(C)C(=O)SCCOP(=O)(OCCSC(=O)C(C)(C)C)C(F)(F)c1ccc2sc(C(=O)N[C@H]3C[C@H]4C[C@H]4C[C@H]4CC[C@@H](C(=O)N5CC(c6c[nH]cn6)C5)N4C3=O)cc2c1 [Compound 219, S,S′-(((((2-(((3S,6S,7aR, 8aS,9aR)-3-(3-(1H-imidazol-4-yl)azetidine-1-carbonyl)-5-oxodecahydro-1H-cyclopropa[d]pyrrolo[1,2-a]azocin-6-yl)carbamoyl)benzo[b]thiophen-5-yl)difluoromethyl)phosphoryl)bis(oxy))bis(ethane-2,1-diyl)) bis(2,2-dimethyl-propanethioate)]"
< 100,100 to 1000,"CC(C)(C)C(=O)OCOP(=O)(OCOC(=O)C(C)(C)C)C(F)(F)c1ccc2sc(C(=O)N[C@H]3C[C@@H]4C[C@@H]4C[C@H]4CC[C@@H](C(=O)N5CC6(CN(C(=O)Cc7ccccc7)C6)C5)N4C3=O)cc2c1 [Compound 210, (((difluoro(2-(((3S,6S,7aS, 8aR,9aR)-5-oxo-3-(6-(2-phenyl-acetyl)-2,6-diazaspiro[3.3]heptane-2-carbonyl)decahydro-1H-cyclopropa[d]pyrrolo[1,2-a]azocin-6-yl)carbamoyl)benzo[b]thiophen-5-yl)methyl)phosphoryl)bis(oxy)) bis(methylene) bis(2,2-dimethyl-propanoate)]"
> 3000,> 3000,"CCOC(=O)CCCOP(=O)(OCCCC(=O)OCC)C(F)(F)c1ccc2sc(C(=O)N[C@H]3C[C@@H]4C[C@@H]4C[C@H]4CC[C@@H](C(=O)N5CC(C(=O)N6CCOCC6)C5)N4C3=O)cc2c1 [Compound 177, diethyl 4,4′-(((difluoro(2-(((3S,6S,7aS, 8aR,9aR)-3-(3-(morpholine-4-carbonyl)azetidine-1-carbonyl)-5-oxodecahydro-1H-cyclopropa[d]pyrrolo[1,2-a]azocin-6-yl)carbamoyl)benzo[b]thiophen-5-yl)methyl)phosphoryl)bis(oxy)) dibutyrate]"
< 100,> 3000,"O=C(OCOP(=O)(Cc1ccc2sc(C(=O)N[C@H]3C[C@H]4C[C@H]4C[C@H]4CC[C@@H](C(=O)N5CC(c6cccnc6)C5)N4C3=O)cc2c1)OCOC(=O)OC1CCOCC1)OC1CCOCC1 [Compound 135, ((((2-(((3S,6S,7aR, 8aS,9aR)-5-oxo-3-(3-(pyridin-3-yl)azetidine-1-carbonyl)decahydro-1H-cyclopropa[d]pyrrolo[1,2-a]azocin-6-yl)carbamoyl)benzo[b]thiophen-5-yl)methyl)phosphoryl)bis(oxy)) bis(methylene) bis(tetrahydro-2H-pyran-4-yl) bis(carbonate)]"
< 100,100 to 1000,"CCCC(=O)SCCOP(=O)(OCCSC(=O)CCC)C(F)(F)c1ccc2sc(C(=O)N[C@H]3C[C@@H]4C[C@@H]4C[C@H]4CC[C@@H](C(=O)N5CC(C(=O)N6CCOCC6)C5)N4C3=O)cc2c1 [Compound 178, S,S′-((((difluoro(2-(((3S,6S,7aS, 8aR,9aR)-3-(3-(morpholine-4-carbonyl)azetidine-1-carbonyl)-5-oxodecahydro-1H-cyclopropa[d]pyrrolo[1,2-a]azocin-6-yl)carbamoyl)benzo[b]thiophen-5-yl)methyl)phosphoryl)bis(oxy))bis(ethane-2,1-diyl)) dibutane-thioate]"
